In patent US11834663B2, “Fibrotic treatment” (Monash University, priority 2015, dated 2023):

Columns and labels:
aged WT mice = experiment: Systolic blood pressure, body weight and cardiac hypertrophy in aged WT mice after chronic IRAP inhibition; assay type: in vivo, mouse
Protocol: There are 8 different sets of in vivo experiments in this study: • A) Phenotypic characterisation of the heart and blood vessels in global IRAP knockout mice and their WT controls treated for 4 weeks with Angiotensin (Ang) II (800 ng/kg/min; s.c.) where mouse hearts and blood vessels were compared to tissue obtained from young WT and IRAP^−/− mice treated with saline. • B) Prevention of Ang II-induced changes in the cardiovascular system following IRAP inhibitor treatment. In the prevention model, WT mice were treated with Ang II (800 ng/kg/min; s.c.)±the IRAP inhibitor (HFI-419; 500 ng/kg/min for 28 days) or HFI-vehicle (1 DMSO:3 HBC). • C) Phenotypic characterisation of the aged heart, kidney and blood vessels in the global IRAP knockout mice where aged WT and IRAP^−/− mouse hearts, kidneys and blood vessels were compared to tissue obtained from young WT and IRAP^−/− mice. • D) Reversal of the age-induced changes in the cardiovascular system following IRAP inhibitor treatment. In the reversal model, aged WT mice were treated with either saline, IRAP inhibitor (HFI-419 at 500 ng/kg/min; compound 1 at 500 ng/kg/min; compound 2 at 50 ng/kg/min) or HFI-vehicle (1 DMSO: 3 HBC) for 4 weeks. • E) Prevention of ischemic-reperfusion injury in isolated hearts taken from aged global IRAP knockout mice and aged IRAP inhibitor (HFI-419 at 500 ng/kg/min; s.c.) treated WT mice compared to age-matched vehicle-treated (1 DMSO:3 HBC; s.c.) WT controls. • F) Phenotypic characterization of cardiac function using echocardiography in the aged global IRAP knockout mice compared to aged and young WT mice. • G) Phenotypic characterization of liver steatosis in IRAP knockout mice in a high fat diet (HFD) model. • H) Reversal of the salt-induced fibrosis in the liver following IRAP inhibitor treatment.
All mice which underwent surgery were anaesthetized with Isoflurane (Isorrane) (5% induction and 2.5% maintenance) and an incision made in the midscapular region through which osmotic minipumps (Alzet model 2004, Alza Corp) were inserted for subcutaneous drug administration. The incision area was sutured with 6/0 DY silk (Dynek Pty Ltd) and antibiotic powder applied (Cicatrin, Pfizer) followed by intramuscular injection of the analgesic Cartrophen (0.1 ml of a 1.5 mg/ml stock solution; Biopharm Australia). Systolic blood pressure (SBP) was measured fortnightly using non-invasive tail-cuff plethysmography apparatus (MC4000 Blood Pressure Analysis System, Hatteras Instrument Inc) before drug treatment (week 0), at week 2 of treatment and end of treatment (week 4). At the end of drug treatment, body weight of mice was recorded. Mice were anaesthetized using Isoflurane inhalation and killed by cervical dislocation. Organs (heart, aorta, kidneys, brain, blood and tibia) were collected, with heart and aorta being dissected appropriately as described below. All organs were then snap frozen in liquid nitrogen, and stored at −80° C. if they were not used for vascular reactivity studies conducted on the day mice were killed.
Ventricular weight (VW) was compared to the body weight (BW) as a ratio of VW:BW (mg/g), as well as comparison of VW to tibial length (TL) in as a ratio of VW:TL (mg/mm) respectively. […] The average of 100 cardiomyocytes per heart section was performed under 60× magnification and analyzed using Image J.

[1] = test system: livers of WT mice on high salt diet; experiment: High salt diet-induced liver fibrosis reversal model (Masson's trichrome); assay type: in vivo, mouse; details: WT mice on 5% NaCl diet 8 weeks, FIG. 28
Protocol: Male C57BL/6J wild type (WT) mice aged approximately 4 to 6 months weighing 30-40 grams were obtained from Monash Animal Research Laboratory. Animals were housed in the Animal House in the Department of Pharmacology, Monash University, in standard cages where they were initially maintained on a normal diet. The housing was maintained at roughly 21° C.±5° C. with mice exposed to a 12 hour light/dark cycle, and access to food and water ad libitum. Experimental procedures undertaken were approved and certified by the School of Biomedical Sciences (SOBS) Animal Ethics Committee of Monash University (2013/118).
A high-salt diet (5% salt) model is a clinically relevant and disease-reversal model which can replicate the high salt intake by humans which is currently a growing problem in the developed countries. High salt intake induces changes in the cardiovascular system and induces remodelling and fibrosis in the heart and liver. […]
Quantification of liver fibrosis was performed using images captured with the Aperio scanner (Monash Histology Platform, Monash University), with ×5 magnification. […] Percentage of interstitial and perivascular collagen was analysed and quantified using ImageJ 1.48 software (Java, NIH), and the percentage from 5 random fields of view were averaged for final percentage of collagen for that particular animal. […]

CCOC(=O)C1=C(NC(C)=O)Oc2cc(O)ccc2C1c1cccnc1 (stereo not shown) [HFI-419]
systolic blood pressure, SBP (aged WT mice; chronic (4 week) HFI-419, FIG. 16a): no significant effect | body weight (aged WT mice; chronic (4 week) HFI-419, FIG. 16b): no significant effect | ventricular weight to body weight ratio, VW:BW (aged WT mice; chronic (4 week) HFI-419, FIG. 16c): no significant effect | cardiomyocyte cross-sectional area (H&E) (aged WT mice; chronic (4 week) HFI-419, FIG. 16e): no effect | ventricular weight to tibial length ratio, VW:TL (aged WT mice; chronic (4 week) HFI-419, FIG. 16d): no significant effect | HSD-induced collagen deposition in liver (Masson's trichrome) ([1]; HFI-419 0.72 mg/kg/d s.c. for last 4 weeks): significantly reversed HSD-induced collagen deposition to the same level seen in mice fed a normal chow diet | indicators of steatosis in the liver ([1]; HFI-419 for last 4 weeks): markedly reduced
